From ChEMBL document CHEMBL2321846, “Aldosterone synthase inhibitors: targeting chronic kidney disease and diabetic nephropathy” (ACS Med Chem Lett, 2013)

Tests used:
[1] = tested on: testosterone production (relative to human aldosterone synthase); assay: Selectivity ratio of IC50 for testosterone production in human H295R cells to IC50 for human aldosterone synthase; format: ADME, cell-based; conditions: read-out: Ratio IC50
[2] = biological target: T1, Cytochrome P450 11B2, mitochondrial (Homo sapiens, UniProt P19099); assay: Inhibition of human aldosterone synthase transfected in chinese hamster V79 cells after 24 hrs by LC-MS method; format: cell-based
T1 sequence (P19099 whole entry): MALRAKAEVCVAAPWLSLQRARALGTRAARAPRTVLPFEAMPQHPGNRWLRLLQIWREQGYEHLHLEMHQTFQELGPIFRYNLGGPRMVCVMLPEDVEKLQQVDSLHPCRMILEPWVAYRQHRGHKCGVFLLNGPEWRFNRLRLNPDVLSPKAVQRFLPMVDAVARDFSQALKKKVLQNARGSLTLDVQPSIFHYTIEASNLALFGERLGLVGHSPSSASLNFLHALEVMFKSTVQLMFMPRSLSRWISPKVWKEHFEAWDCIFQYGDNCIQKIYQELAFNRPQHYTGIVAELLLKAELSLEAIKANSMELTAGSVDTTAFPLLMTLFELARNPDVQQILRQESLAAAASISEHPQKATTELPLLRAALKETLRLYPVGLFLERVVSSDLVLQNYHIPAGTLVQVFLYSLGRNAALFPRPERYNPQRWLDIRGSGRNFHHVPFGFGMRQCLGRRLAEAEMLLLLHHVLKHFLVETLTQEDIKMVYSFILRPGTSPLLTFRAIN

NCI-H295R [3] = assay: Inhibition of testosterone production in human NCI-H295R cells after 48 hrs by HPLC analysis; format: functional, cell-based
[4] = tested on: estradiol production (relative to human aldosterone synthase); assay: Selectivity ratio of IC50 for estradiol production in human H295R cells to IC50 for human aldosterone synthase; format: ADME, cell-based; conditions: read-out: Ratio IC50
NCI-H295R [5] = assay: Inhibition of estradiol production in human NCI-H295R cells after 48 hrs by HPLC analysis; format: functional, cell-based

Row | IC50 [2] | IC50 (NCI-H295R [3]) | IC50 (NCI-H295R [5]) | Compound | selectivity ratio [1] | selectivity ratio [4]
1 | 0.007 µM | > 30 µM | 22 µM | CC1(C)CC(c2ccc(C#N)cc2F)c2cn[nH]c21 (stereo not given) | > 4280 | 3140
2 | 0.005 µM | > 30 µM | 13.2 µM | CC1(C)C[C@H](c2ccc(C#N)cc2)c2cn[nH]c21 | > 6000 | 2640
